Data as given in US20200199530A1, “METHODS OF DIFFERENTIATING STEM CELL-DERIVED ECTODERMAL LINEAGE PRECURSORS” (MEMORIAL SLOAN-KETTERING CANCER CENTER, priority 2017, published 2020).
Entries after “also recorded” stand apart in the source; their conditions may differ. Ends that are not written are not given here.

Key:
Assay type in all cases: cell-based, human
[1] = system: H9 SIX1 H2B::GFP cells; test: LOPAC small-molecule screen for enhancers of placode fate and hit validation; conditions: for validation of primary hits: percentage of cells expressing SIX1: CP protocol, FIG. 6C, 13A/13B, 44A/44B; for expression of SIX1 relative to control differentiations (primary screen): LOPAC library, 1 μM and 10 μM, added day 3, read day 6
Experimental: (§1) H9 SIX1 H2B::GFP cells were differentiated into lens placode as described earlier and plated on 96 well plates coated with Matrigel. On day 3 (day before SIX1 H2B::GFP can be detected in individual cells) the medium was additionally supplemented with compounds from the LOPAC library. Two different concentrations (1 μM and 10 μM) per compound were used. Medium was not changed until day 6 of differentiation. On day 6 of differentiation plates were washed once with PBS and cells were fixed with 4% PFA. To increase the signal intensity over background, the cells were stained using an antibody against GFP. After labeling with an appropriate Alexa488-conjugated secondary antibody and the nuclear counterstain DAPI, cells were analyzed using the Meta Express software (Meta-morph) by calculating the percent nuclear GFP signal over DAPI positive cells.

[2] = system: hPSC differentiated towards CP (SIX1); test: Phenanthroline in CP differentiation: marker expression and SIX1 positive cells; conditions: for SIX1 positive cells: CP protocol, FIG. 6E, Phenanthroline alone = absence of FGF2, control 18%
Experimental: (§2) All differentiations starting from E8 were dissociated into single cells using EDTA and re-plated at high density in E8 with the ROCK inhibitor (Tocris). Cells were typically seeded at a density of 200,000 cells/cm^2 on Matrigel coated dishes. Switching from E8 to E6 triggered differentiations (i.e. d0). Neuroectoderm (NE) formation was generated by culturing the cells in E6 with 10 μM SB and 500 nM LDN until d12. Neural Crest (NC) was first treated with 10 μM SB, 600 nM CHIR and 1 ng/ml BMP4 from d0-d2. At d3, cells were maintained in 10 μM SB with 1.5 uM CHIR until d12. Lens placode was first treated with 10 μM SB and 5 ng/ml BMP4 from d0-d2. At d3, cells were maintained in 10 μM SB with 50 ng/ml FGF2 until d12. Trigeminal placode was first treated with 10 μM SB and 5 ng/ml BMP4 from d0-d2. At d2, 600 nm CHIR was added. At d3, cells were treated with 10 μM SB and 600 nM CHIR. From d4-d12, cells were treated with 10 μM SB. Finally, non-neural ectoderm (NNE) was treated with 10 μM SB, 10 μM SU5402 and 10 ng/ml BMP4 from d0-d1, and then treated with 10 μM SB and 5 ng/ml BMP4 from d2-d12.
as §1

[3] = system: hPSCs; test: Tolerability of small molecules during E6-based differentiation; conditions: had to be re-titrated
[4] = system: hPSC-derived pituitary cells; test: Stimulation of hormone release in vitro (ELISA); conditions: day 30 cells, CRF 1 μM, Somatocrinin 1 μg/ml, vs solvent control; for ACTH release: Stressin I 2 μM, Urocortin 500 nM, Ghrelin 1 μM
Experimental: To stimulate hormone release in vitro, cells were differentiated in 24 well plates as described above. On day 30 of differentiation cells were washed once with PBS and 250 μl of fresh medium containing either the solvent or the stimulant were added to each well. After 12 h the supernatant was removed and centrifuged for 5 min at 2000 g to pellet debris. Supernatant was transferred into fresh reaction tubes, flash frozen and stored at −80° C. until ELISA measurements. Stimulants used were: CRF (Tocris, 1 μM), Stressin I (Tocris, 2 μM), Ghrelin (Tocris, 1 μM), Somatocrinin (Accurate Chemical, 1 μg/ml), Nafarelin (Tocris, 1 μM) and Urocortin (Tocris, 500 nM).
Hormone concentration in the supernatant of cells or in animal serum was analyzed using ELISA measurements. Hormone concentration in the cell culture supernatant was assessed using traditional single hormone ELISA Kits according to the manufactures manual. ACTH (Calbiotech, detects rat and human ACTH), hGH (R&D Systems, human specific), FSH (Calbiotech, FSH (lumELISA, human specific) and corticosterone (Abcam). Plates were read using an EnSpire Multimode plate reader (PerkinElmer). Hormone concentration in in vivo samples was analyzed using either traditional ELISA (for ACTH only, serum diluted 1:2) or species specific (human or rat) Milliplex multiplex ELISA using Luminex technology (Millipore). Magnetic bead-based sandwich immunoassay was performed according to the manufactures manual. 25 μl of undiluted serum samples in duplicate wells were analyzed by Luminex FlexMap 3D (Luminex Corp, Austin, Tex.). Cytokine concentrations were determined by Luminex Xponent 4.1 and EMD-Millipore Milliplex Analyst v5.1 using 5-p log analysis.

[5] = system: hPSC (SIX1::H2B-GFP reporter); test: Cranial placode induction in E6 media, SIX1 positive cells
Experimental: as §2
Cranial Placode differentiation. Day 0 (0-24 hrs): Add E6 media containing 5 ng/ml BMP4+10 μM SB to cells.
Day 1 (24-48 hrs): Change media with E6 media containing 5 ng/ml BMP4+10 μM SB to cells.
Day 2 (48-72 hrs): Change media with E6 media containing 5 ng/ml BMP4+10 μM SB to cells. […]

[6] = system: hPSCs (TFAP2A expression); test: BMP4 induction of TFAP2A and non-neural ectoderm in E6 media
Experimental: as §2, with “Finally, non-neural ectoderm (NNE) was treated with 10 μM SB, 10 μM SU5402 and 10 ng/ml BMP4 from d0-d1, and then treated with 10 μM SB and 5 ng/ml BMP4 from d2-d12.” left out
Human embryonic (H9, H1, HUES8, HUES6 and MEL1) and induced pluripotent stem cells (BJ1, MRC5 and SeV6) were adapted in the E8 media for a minimum of 4 passages (˜2 weeks) and induced to differentiate into the four ectodermal lineages. Bulk differentiations were dissociated using Accutase for 30 min at 37° C. at day 10 of differentiation and seeded in 96 well imaging plates. Cells were fixed two days later using 4% paraformaldehyde and permeabilized using 0.5% Triton-X and maintained in 0.2% Tween all diluted with PBS. Cells were then stained using antibodies against various markers indicative of the ectodermal lineages. Plates were scanned and measurements recorded using an IN Cell Analyzer 6000 (GE) and quantified using the Columbus image analysis software (PerkinElmer). Experiments involving these cell lines were biologically replicated (n=4) and technically replicated (n=2 per biological replicate).

[7] = system: hPSC (SOX10::GFP reporter); test: Neural crest induction in E6 media, SOX10 positive cells
Experimental: as §2
Neural Crest differentiation. Day 0 (0-24 hrs): Add E6 media containing 1 ng/ml BMP4+10 μM SB+600 nM CHIR to cells.
Day 1 (24-48 hrs): Change media with E6 media containing 1 ng/ml BMP4+10 μM SB+600 nM CHIR to cells. […]

[8] = three-day pulse with SB431542 in E6

CN1CCC(c2c[nH]c3ccc(O)cc23)CC1 [BRL-5443]
validation of primary hits: percentage of cells expressing SIX1 [1]: increased the level of SIX1 expressing CP precursor cells | validation of primary hits: percentage of cells expressing SIX1 ([1]; listed as BRL-54443): did not produce a significant difference | expression of SIX1 relative to control differentiations (primary screen) [1]: increased expression of SIX1 above the levels observed in control differentiations

c1cnc2c(c1)ccc1cccnc12 [Phenanthroline]
SIX1 positive cells [2]: 69% | fold increase of SIX1 positive cells versus control ([2]; absence of FGF2, 69% versus 18%): ~4 fold | expression of other lineage markers (Sox10, T, MyoD, Sox17) ([2]; differentiation towards CP, FIG. 6D): without inducing the expression of other lineage markers | validation of primary hits: percentage of cells expressing SIX1 [1]: confirmed to reliably enhance the percentage of cells expressing Six1; also recorded: confirmed to trigger a robust increase in the percentage of cells expressing SIX1; also recorded: large majority of cells | expression of SIX1 relative to control differentiations (primary screen) [1]: increased expression of SIX1 above the levels observed in control differentiations

Cc1c[nH]c(/C=C2\C(=O)Nc3ccccc32)c1CCC(=O)O [SU5402, 2-[(1,2-Dihydro-2-oxo-3H-indol-3-ylidene)methyl]-4-methyl-1H-pyrrole-3-pr-opanoic acid]
cell killing at the original (KSR protocol) concentration [3]: effectively killed the cells

CRF: stimulant of hormone release (Tocris, 1 μM) (SEEPPISLDLTFHLLREVLEMARAEQLAQQAHSNRKLMEII; ends and bridges not checked; UniProt P06850 154-194, looked up)
ACTH release [4]: induced release of ACTH; also recorded: specifically induced | GH release [4]: not

FGF2: activator of FGF signaling
SIX1 positive cells after addition of FGF agonist ([5]; E6 with SB431542 and BMP pulse, FIG. 2G/38B): ~50% | SIX1 positive cells [2]: 34%

Ghrelin: stimulant used (Tocris, 1 μM) (GSSFLSPEHQRVQQRKESKKPPAKLQPR; ends and bridges not checked; UniProt Q9UBU3 24-51, looked up)
ACTH release [4]: did not trigger ACTH release and not

Somatocrinin: stimulant of hormone release (Accurate Chemical, 1 μg/ml) (YADAIFTNSYRKVLGQLSARKLLQDIMSRQQGESNQERGARARL; ends and bridges not checked; UniProt P01286 32-75, looked up)
ACTH release [4]: not | ACTH release ([4]; listed as somatocrinin): did not trigger ACTH release | GH release [4]: induced | GH release ([4]; listed as somatocrinin): triggered robust increase in GH release

Urocortin: stimulant of hormone release (Tocris, 500 nM) (DNPSLSIDLTFHLLRTLLELARTQSQRERAEQNRIIFDSV; ends and bridges not checked; UniProt P55089 83-122, looked up)
ACTH release [4]: specifically induced | ACTH release ([4]; listed as urocortin): induced release of ACTH

B1: BMP4: activator of BMP signaling (protein, UniProt P12644 293-408, looked up)
Bone morphogenetic protein 4: SPKHHSQRARKKNKNCRRHSLYVDFSDVGWNDWIVAPPGYQAFYCHGDCPFPLADHLNSTNHAIVQTLVNSVNSSIPKACCVPTELSAISMLYLDEYDKVVLKNYQEMVVEGCGCR
BMP4 concentration optimal for CP induction (dose-response studies) [5, 8]: around 5 ng/ml | NNE marker phenotype at high BMP4 concentration ([6]; 20 ng/ml): cells become TFAP2A+ and lack expression of SOX10 and SIX1; also recorded: derivation of TFAP2A+, PAX6−, SIX1−, and SOX10− NNE is achieved | percentages of TFAP2A+ cells ([6]; with addition of BMP4, range across ESC/iPSC lines, 0%-5% without BMP4): 56%-95% | TFAP2A expression ([6]; within 3 days of treatment, dose-dependent): rapidly upregulated | SOX10 positive NC population ([7]; short pulse 1 ng/ml in combination with WNT activation): nearly homogenous SOX10 positive NC population; also recorded: nearly homogeneous SOX10+ NC population | BMP4 concentration giving strong NC induction (dose-response studies) [7, 8]: around 1 ng/ml
